From patent publication US10611730B2, “Benzimidazolone and benzothiazolone compounds and their use as AMPA receptor modulators” (Janssen Pharmaceutica NV, priority 2015, dated 2020)

These compounds were tested against TARP γ8 dependent AMPA receptor (GluA1o-g8 fusion channel) (Homo sapiens (Human), UniProt P42261+Q8WXS5) (assay: Calcium flux assay (FLIPR), HEK293 cells expressing GRIA1o-CACNG8 fusion). Details: inhibition of calcium flux after 15 μM glutamate, read-out: GluR1-γ8 pIC50 (converted).
Chain of TARP γ8 dependent AMPA receptor (GluA1o-g8 fusion channel) (P42261 other isoform, or with tags, fused parts or gaps): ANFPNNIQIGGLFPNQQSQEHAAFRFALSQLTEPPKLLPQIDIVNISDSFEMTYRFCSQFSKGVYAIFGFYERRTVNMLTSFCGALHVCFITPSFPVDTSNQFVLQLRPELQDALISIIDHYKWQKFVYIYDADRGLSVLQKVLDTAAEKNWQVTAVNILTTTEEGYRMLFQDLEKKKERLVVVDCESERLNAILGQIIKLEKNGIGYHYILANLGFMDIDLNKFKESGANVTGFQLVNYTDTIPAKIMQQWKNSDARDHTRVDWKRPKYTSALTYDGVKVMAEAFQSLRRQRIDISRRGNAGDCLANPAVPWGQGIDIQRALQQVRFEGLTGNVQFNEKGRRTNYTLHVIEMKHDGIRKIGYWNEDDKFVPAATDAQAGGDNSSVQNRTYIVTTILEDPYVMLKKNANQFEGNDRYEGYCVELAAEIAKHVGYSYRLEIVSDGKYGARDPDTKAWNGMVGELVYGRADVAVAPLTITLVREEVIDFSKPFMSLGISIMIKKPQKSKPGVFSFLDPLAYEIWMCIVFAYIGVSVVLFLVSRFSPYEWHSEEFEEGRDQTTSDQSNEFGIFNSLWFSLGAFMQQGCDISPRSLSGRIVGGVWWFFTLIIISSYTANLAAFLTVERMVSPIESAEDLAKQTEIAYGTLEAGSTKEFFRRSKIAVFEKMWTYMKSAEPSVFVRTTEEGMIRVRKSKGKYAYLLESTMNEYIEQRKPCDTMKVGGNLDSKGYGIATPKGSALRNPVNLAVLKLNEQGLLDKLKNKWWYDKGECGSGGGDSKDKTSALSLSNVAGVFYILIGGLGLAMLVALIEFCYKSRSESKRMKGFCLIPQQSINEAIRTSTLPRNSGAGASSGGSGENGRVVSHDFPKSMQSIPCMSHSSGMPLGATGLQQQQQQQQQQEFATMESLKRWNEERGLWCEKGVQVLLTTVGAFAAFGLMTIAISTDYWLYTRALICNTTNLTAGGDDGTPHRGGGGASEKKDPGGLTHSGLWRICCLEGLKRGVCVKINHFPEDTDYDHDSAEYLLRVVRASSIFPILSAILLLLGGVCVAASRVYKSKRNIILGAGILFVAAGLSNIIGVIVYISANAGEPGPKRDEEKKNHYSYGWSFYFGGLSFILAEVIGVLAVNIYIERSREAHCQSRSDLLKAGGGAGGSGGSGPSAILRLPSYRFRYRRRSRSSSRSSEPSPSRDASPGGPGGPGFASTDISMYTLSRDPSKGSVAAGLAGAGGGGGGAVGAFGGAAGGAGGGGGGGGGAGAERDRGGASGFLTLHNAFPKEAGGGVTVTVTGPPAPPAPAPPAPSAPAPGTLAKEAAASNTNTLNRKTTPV
Assay type: cell-based
Text: This assay was used to test compounds for their ability to inhibit TARP γ8 dependent AMPA receptor activity.
An in vitro assay was used to determine the potency of test compounds as inhibitors of the glutamate response of the channel formed by GluA1o-g8. To ensure a 1:1 stoichiometry of GluA1o and g8 subunits in the expressed channel, a fusion of the cDNAs for GRIA1o and CACNG8 was used. […] A clonal cell line in HEK293 cells stably expressing this construct, with a geneticin selection marker, was generated for use in this assay. Cell expressing the GRIAlo-CACNG8 fusion construct were grown in a monolayer in 96- or 384-well microtiter plates. […] The cells were then loaded with a calcium-sensitive dye (Calcium-5 or Calcium-6, Molecular Devices) and the test compounds at a range of concentrations.
The fluorescence in each well was normalized to the fluorescence of negative and positive control wells. […] The responses to glutamate as functions of the test compound concentrations were fitted to a four-parameter logistic function. The fitted parameter corresponding to the midpoint was taken to be the potency of inhibition of the compound.

Question: Which IC50 does the source give for `O=c1[nH]c2ccc(-c3c(Cl)cccc3OCC3CC3(F)F)cc2[nH]1` (racemic) [Example 93, (±)-5-[2-Chloro-6-[(2,2-difluorocyclopropyl)methoxy]phenyl]-1,3-dihydrobenzimidazol-2-one] here?
Answer: The IC50 was 20 nM.

Question: `O=c1[nH]c2ccc(-c3cccc(OCC4CC4(F)F)c3Cl)cc2[nH]1` (racemic) [Example 111, (±)-5-[2-Chloro-3-[(2,2-difluorocyclopropyl)methoxy]phenyl]-1,3-dihydrobenzimidazol-2-one] was tested. Which IC50 did it give?
Answer: Its IC50 is 50.1 nM.

Question: `CC(Oc1cccc(Cl)c1-c1ccc2[nH]c(=O)[nH]c2c1)C(F)(F)F` (racemic) [Example 118, (±)-5-[2-Chloro-6-(2,2,2-trifluoro-1-methyl-ethoxy)phenyl]-1,3-dihydrobenzimidazol-2-one] was tested. Which IC50 did it give?
Answer: Its IC50 is 31.6 nM.

Question: With `COc1cccc(OC(C)C(F)(F)F)c1-c1ccc2[nH]c(=O)[nH]c2c1` (racemic) [Example 121, (±)-5-[2-Methoxy-6-(2,2,2-trifluoro-1-methyl-ethoxy)phenyl]-1,3-dihydrobenzimidazol-2-one] as the compound, how does the IC50 read?
Answer: Its IC50 is 158 nM.

Question: How did the IC50 turn out when `CC(C#N)c1cccc(Cl)c1-c1ccc2[nH]c(=O)[nH]c2c1` (racemic) [Example 126, (±)-2-[3-Chloro-2-(2-oxo-1,3-dihydrobenzimidazol-5-yl)phenyl]propanenitrile] was run?
Answer: The IC50 was 12.6 nM.

Question: With `O=c1[nH]c2ccc(-c3cccc(CN4CCOC(C(F)(F)F)C4)c3Cl)cc2[nH]1` (racemic) [Example 144, (±)-5-[2-Chloro-3-[[2-(trifluoromethyl)morpholin-4-yl]methyl]phenyl]-1,3-dihydrobenzimidazol-2-one] as the compound, how does the IC50 read?
Answer: The IC50 was 126 nM.

Question: With `Cc1c(CN2CCOC(C)C2)cccc1-c1ccc2[nH]c(=O)[nH]c2c1` (racemic) [Example 150, (±)-5-[2-Methyl-3-[(2-methylmorpholin-4-yl)methyl]phenyl]-1,3-dihydrobenzimidazol-2-one] as the compound, how does the IC50 read?
Answer: The IC50 was 200 nM.

Question: For `Cc1c(CN2CCOC(C(F)(F)F)C2)cccc1-c1ccc2[nH]c(=O)[nH]c2c1` (racemic) [Example 151, (±)-5-[2-Methyl-3-[[2-(trifluoromethyl)morpholin-4-yl]methyl]phenyl]-1,3-dihydrobenzimidazol-2-one], which IC50 is on record?
Answer: The IC50 was 31.6 nM.

Question: Which IC50 does the source give for `C[C@@H](Oc1cccc(Cl)c1-c1ccc2[nH]c(=O)[nH]c2c1)C(F)(F)F` (single isomer, unassigned) [Example 119, (R*)-5-[2-Chloro-6-(2,2,2-trifluoro-1-methyl-ethoxy)phenyl]-1,3-dihydrobenzimidazol-2-one] here?
Answer: Its IC50 is 50.1 nM.

Question: With `C[C@H](Oc1cccc(Cl)c1-c1ccc2[nH]c(=O)[nH]c2c1)C(F)(F)F` (single isomer, unassigned) [Example 120, (S*)-5-[2-Chloro-6-(2,2,2-trifluoro-1-methyl-ethoxy)phenyl]-1,3-dihydrobenzimidazol-2-one] as the compound, how does the IC50 read?
Answer: The IC50 was 79.4 nM.

Question: For `Cc1c(CN2CCOCC2C)cccc1-c1ccc2[nH]c(=O)[nH]c2c1` (stereo in doubt) [Example 152, (3R)-5-[2-Methyl-3-[[3-methylmorpholin-4-yl]methyl]phenyl]-1,3-dihydrobenzimidazol-2-one], which IC50 is on record?
Answer: The IC50 was 1000 nM.

Question: `Cc1c(CN2CCOCC2C)cccc1-c1ccc2[nH]c(=O)[nH]c2c1` (stereo in doubt) [Example 153, (3S)-5-[2-Methyl-3-[[3-methylmorpholin-4-yl]methyl]phenyl]-1,3-dihydrobenzimidazol-2-one] was tested. Which IC50 did it give?
Answer: Its IC50 is 316 nM.

Question: Which IC50 does the source give for `Cc1c(CN2CC[C@H](O)[C@H](F)C2)cccc1-c1ccc2[nH]c(=O)[nH]c2c1` (stereo in doubt) [Example 159, (3R,4S)-5-[3-[[3-Fluoro-4-hydroxy-1-piperidyl]methyl]-2-methyl-phenyl]-1,3-dihydrobenzimidazol-2-one] here?
Answer: Its IC50 is 6310 nM.

Question: How did the IC50 turn out when `Cc1cccc(-c2ccc3[nH]c(=O)[nH]c3c2)c1C` [Example 1, 5-(2,3-Dimethylphenyl)-1,3-dihydrobenzimidazol-2-one] was run?
Answer: The IC50 was 251 nM.

Question: For `Cc1ccccc1-c1ccc2[nH]c(=O)[nH]c2c1` [Example 3, 5-(o-Tolyl)-1,3-dihydrobenzimidazol-2-one], which IC50 is on record?
Answer: Its IC50 is 1260 nM.

Question: How did the IC50 turn out when `O=c1[nH]c2ccc(-c3ccccc3C(F)(F)F)cc2[nH]1` [Example 4, 5-[2-(Trifluoromethyl)phenyl]-1,3-dihydrobenzimidazol-2-one] was run?
Answer: The IC50 was 501 nM.

Question: For `O=c1[nH]c2ccc(-c3ccccc3-c3ccccc3)cc2[nH]1` [Example 5, 5-(2-Phenylphenyl)-1,3-dihydrobenzimidazol-2-one], which IC50 is on record?
Answer: Its IC50 is 100 nM.

Question: Which IC50 does the source give for `CC(C)c1ccccc1-c1ccc2[nH]c(=O)[nH]c2c1` [Example 6, 5-(2-Isopropylphenyl)-1,3-dihydrobenzimidazol-2-one] here?
Answer: The IC50 was 316 nM.

Question: With `COc1cccc(OC)c1-c1ccc2[nH]c(=O)[nH]c2c1` [Example 7, 5-(2,6-Dimethoxyphenyl)-1,3-dihydrobenzimidazol-2-one] as the compound, how does the IC50 read?
Answer: The IC50 was 1260 nM.

Question: With `CC(C)Oc1ccccc1-c1ccc2[nH]c(=O)[nH]c2c1` [Example 8, 5-(2-Isopropoxyphenyl)-1,3-dihydrobenzimidazol-2-one] as the compound, how does the IC50 read?
Answer: Its IC50 is 2000 nM.

Question: `CC(C)(C)OC(=O)N1CCN(c2ccccc2-c2ccc3[nH]c(=O)[nH]c3c2)CC1` [Example 9, tert-Butyl 4-[2-(2-oxo-1,3-dihydrobenzimidazol-5-yl)phenyl]piperazine-1-carboxylate] was tested. Which IC50 did it give?
Answer: The IC50 was 794 nM.

Question: How did the IC50 turn out when `Cc1ccc(Cl)cc1-c1ccc2[nH]c(=O)[nH]c2c1` [Example 10, 5-(5-Chloro-2-methyl-phenyl)-1,3-dihydrobenzimidazol-2-one] was run?
Answer: The IC50 was 251 nM.

Question: With `CC(C)Oc1cccc(F)c1-c1ccc2[nH]c(=O)[nH]c2c1` [Example 11, 5-(2-Fluoro-6-isopropoxy-phenyl)-1,3-dihydrobenzimidazol-2-one] as the compound, how does the IC50 read?
Answer: The IC50 was 501 nM.

Question: `O=c1[nH]c2ccc(-c3c(Cl)cccc3C(F)(F)F)cc2[nH]1` [Example 12, 5-[2-Chloro-6-(trifluoromethyl)phenyl]-1,3-dihydrobenzimidazol-2-one] was tested. Which IC50 did it give?
Answer: Its IC50 is 631 nM.

Question: How did the IC50 turn out when `O=c1[nH]c2ccc(-c3ccccc3OCC3CC3)cc2[nH]1` [Example 13, 5-[2-(Cyclopropylmethoxy)phenyl]-1,3-dihydrobenzimidazol-2-one] was run?
Answer: Its IC50 is 398 nM.

Question: `Cc1ccc(OCC(C)C)c(-c2ccc3[nH]c(=O)[nH]c3c2)c1` [Example 15, 5-(2-Isobutoxy-5-methyl-phenyl)-1,3-dihydrobenzimidazol-2-one] was tested. Which IC50 did it give?
Answer: Its IC50 is 31.6 nM.

Question: `CC(C)Oc1ccc(Cl)cc1-c1ccc2[nH]c(=O)[nH]c2c1` [Example 16, 5-(5-Chloro-2-isopropoxy-phenyl)-1,3-dihydrobenzimidazol-2-one] was tested. Which IC50 did it give?
Answer: Its IC50 is 316 nM.

Question: With `O=c1[nH]c2ccc(-c3ccccc3Cl)cc2[nH]1` [Example 17, 5-(2-Chlorophenyl)-1,3-dihydrobenzimidazol-2-one] as the compound, how does the IC50 read?
Answer: Its IC50 is 631 nM.

Question: For `O=c1[nH]c2ccc(-c3cc(Cl)ccc3Cl)cc2[nH]1` [Example 18, 5-(2,5-Dichlorophenyl)-1,3-dihydrobenzimidazol-2-one], which IC50 is on record?
Answer: Its IC50 is 251 nM.

Question: `Cc1ccc(Cl)c(-c2ccc3[nH]c(=O)[nH]c3c2)c1` [Example 19, 5-(2-Chloro-5-methyl-phenyl)-1,3-dihydrobenzimidazol-2-one] was tested. Which IC50 did it give?
Answer: Its IC50 is 200 nM.

Question: With `COc1cccc(Cl)c1-c1ccc2[nH]c(=O)[nH]c2c1` [Example 20, 5-(2-Chloro-6-methoxy-phenyl)-1,3-dihydrobenzimidazol-2-one] as the compound, how does the IC50 read?
Answer: The IC50 was 251 nM.

Question: Which IC50 does the source give for `Cc1ccc(C)c(-c2ccc3[nH]c(=O)[nH]c3c2)c1` [Example 21, 5-(2,5-Dimethylphenyl)-1,3-dihydrobenzimidazol-2-one] here?
Answer: Its IC50 is 398 nM.
